Results as given in patent publication US10450297B2, “Sulfonyl amide derivatives for the treatment of abnormal cell growth” (Pfizer, Inc., priority 2007, dated 2019).
pIC50: −log10 of the molar value.

Target: FAK kinase (catalytic construct FAK(410-689)) (Homo sapiens (Human), UniProt Q05397)
Experiment: FAKcd kinase ELISA (inhibition of poly-glu-tyr phosphorylation by FAK(410-689))
Assay type: biochemical
Details: 50 μM final ATP
Procedure: A. In-Vitro Activity of FAK:
The assay protocol has three parts:
3. […] 4. […] 5. […] 6. […] 7. […] 9. […] 10. […] 12. […] 13. […] 14. Aliquot the FAKcd protein and store frozen at −80° C. II. FAK Activation 1. […] At t120 (t=120 minutes), add 10 μl of 150 mM ATP. […] Add 180 μl aliquots of the desalted material to NiNTA spin column and incubate on spin column 4. […] FAKcd Kinase ELISA 1. Coat 96-well Nunc MaxiSorp plates with poly-glu-tyr (pGT) at […]: Prepare 10 μg/ml of pGT in PBS and aliquot 100 μl/well. Incubate the plates at 37° C. overnight, aspirate the supernatant, wash the plates 3 times with Wash Buffer, and flick to dry before storing at 4° C. 2. Prepare compound stock solutions of 2.5 mM in 100% DMSO. The stocks are subsequently diluted to 60× of the final concentration in 100% DMSO, and diluted 1:5 in Kinase Phosphorylation Buffer. 3. […] Add 80 μl to each well for a final ATP concentration of 50 μM. 4. […] 5. Dilute on ice, FAKcd protein to 1:1000 in Kinase Phosphorylation Buffer. Dispense 30 μl per well. 6. Note: Linearity and the appropriate dilution must be pre-determined for each batch of protein. The enzyme concentration selected should be such that quantitation of the assay signal will be approximately 0.8-1.0 at OD450, and in the linear range of the reaction rate. 7. Prepare both a No ATP control (noise) and a No Compound Control (Signal): 8. (Noise) One blank row of wells receives 10 μl of 1:5 diluted compounds in DMSO, 80 μl of Phosphorylation buffer (minus ATP), and 30 μl FAKcd solution. 9. […] 10. Incubate reaction at room temperature for 15 minutes with gentle shaking on a plate shaker. 11. Terminate the reaction by aspirating off the reaction mixture and washing 3 times with wash buffer. 12. Dilute phospho-tyrosine HRP-conjugated (pY20HRP) antibody to 0.250 μg/ml (1:1000 of Stock) in blocking buffer. Dispense 100 μl per well, and incubate with shaking for 30 minutes at 25°. 13. Aspirate the supernatant and wash the plate 3 times with wash buffer. 14. Add 100 μl per well of room temperature TMB solution to initiate color development. Color development is terminated after approximately 15-30 sec. by the addition of 100 μl of 0.09M H2SO4 per well. 15. The signal is quantitated by measurement of absorbance at 450 nm on the BioRad ricroplate reader or a microplate reader capable of reading at OD450. 16. Inhibition of tyrosine kinase activity would result in a reduced absorbance signal. […] The values are reported as IC50s, μM concentration. FAK Inducible cell-based ELISA: Final Protocol Materials: […]

Sequence of FAK kinase (catalytic construct FAK(410-689)) (Q05397 410-689): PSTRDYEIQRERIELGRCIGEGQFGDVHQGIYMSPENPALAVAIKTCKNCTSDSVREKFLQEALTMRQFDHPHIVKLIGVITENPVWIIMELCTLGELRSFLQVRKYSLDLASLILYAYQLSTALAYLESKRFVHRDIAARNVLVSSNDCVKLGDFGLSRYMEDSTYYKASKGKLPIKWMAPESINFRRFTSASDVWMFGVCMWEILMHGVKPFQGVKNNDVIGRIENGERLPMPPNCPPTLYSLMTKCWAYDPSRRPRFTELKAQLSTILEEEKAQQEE

A pIC50 of 9.22 was found for `Cc1cccc(NS(C)(=O)=O)c1CNc1nc(Nc2ccccc2)ncc1C(F)(F)F` [Compound 69, N-[2-({[2-anilino-5-(trifluoromethyl)pyrimidin-4-yl]amino}methyl)-3-methylphenyl]methane-sulfonamide] in this work.

A pIC50 of 9.22 was found for `Cc1cnc(N(C)S(C)(=O)=O)c(CNc2nc(Nc3ccccc3)ncc2C(F)(F)F)c1` [Compound 70, N-[3-({[2-anilino-5-(trifluoromethyl)pyrimidin-4-yl]amino}methyl)-5-methylpyridin-2-yl]-N-methylmethanesulfonamide] in this work.

A pIC50 of 9.22 was found for `CN(c1nccnc1CNc1nc(Nc2ccc(C(N)=O)cc2)ncc1C(F)(F)F)S(C)(=O)=O` [Compound 71, 4-({4-[({3-[methyl(methylsulfonyl)amino]pyrazin-2-yl}methyl)amino]-5-(trifluoromethyl)pyrimidin-2-yl}amino)benzamide] in this work.

A pIC50 of 9.22 was found for `CN(c1cccnc1CNc1nc(Nc2ccc(C(N)=O)cc2)ncc1C(F)(F)F)S(C)(=O)=O` [Compound 73, 4-({4-(({3-[methyl(methylsulfonyl)amino]pyridin-2-yl}methyl)amino]-5-(trifluoromethyl)pyrimidin-2-yl}amino)benzamide] in this work.

A pIC50 of 9.22 was found for `CN(c1nccnc1CNc1nc(Nc2ccccc2)ncc1C(F)(F)F)S(C)(=O)=O` [Compound 75, N-[3-({[2-anilino-5-(trifluoromethyl)pyrimidin-4-yl]amino}methyl)pyrazin-2-yl]-N-methylmethane-sulfonamide] in this work.

A pIC50 of 7.03 was found for `CN(c1cccnc1CNc1nc(Nc2ccccc2)ncc1C(F)(F)F)S(C)(=O)=O` [Compound 76, N-[2-({[2-anilino-5-(trifluoromethyl)pyrimidin-4-yl]amino}methyl)pyridin-3-yl]-N-methylmethane-sulfonamide] in this work.

A pIC50 of 9.22 was found for `CCNC(=O)c1ccc(Nc2ncc(C(F)(F)F)c(NCc3cccc(S(C)(=O)=O)c3)n2)cc1` [Compound 77, N-ethyl-4-{[4-{[3-(methylsulfonyl)benzyl]amino}-5-(trifluoromethyl)pyrimidin-2-yl]amino}benzamide] in this work.

A pIC50 of 9.22 was found for `Cc1ccnc(N(C)S(C)(=O)=O)c1CNc1nc(Nc2ccccc2)ncc1C(F)(F)F` [Compound 78, N-[3-({[2-anilino-5-(trifluoromethyl)pyrimidin-4-yl)amino}methyl)-4-methylpyridin-2-yl]-N-methylmethanesulfonamide] in this work.

A pIC50 of 8.58 was found for `Cc1ncc(CNc2nc(Nc3ccccc3)ncc2C(F)(F)F)c(N(C)S(C)(=O)=O)n1` [Compound 79, N-[5-({[2-anilino-5-(trifluoromethyl)pyrimidin-4-yl]amino}methyl)-2-methylpyrimidln-4-yl]-N-methylmethanesulfonamide] in this work.

A pIC50 of 9.23 was found for `Cc1cc(N(C)S(C)(=O)=O)c(CNc2nc(Nc3ccccc3)ncc2C(F)(F)F)cn1` [Compound 80, N-[5-({[2-anilino-5-(trifluoromethyl)pyrimidin-4-yl]amino}methyl)-2-methylpyridin-4-yl]-N-methylmethanesulfonamide] in this work.

A pIC50 of 7.80 was found for `CN(c1ncccc1CNc1nc(Nc2ccc(C(F)(F)F)nc2)ncc1C(F)(F)F)S(C)(=O)=O` [Compound 81, N-methyl-N-[3-({[5-(trifluoromethyl)-2-{[6-(trifluoromethyl)pyridin-3-yl]amino}pyrimidin-4-yl]amino}methyl)pyridin-2-yl]methanesulfonamide] in this work.

A pIC50 of 9.22 was found for `Cc1cnc(N(C)S(C)(=O)=O)c(CNc2nc(Nc3ccc(C(N)=O)cc3)ncc2C(F)(F)F)c1` [Compound 82, 4-({4-(({5-methyl-2-[methyl(methylsulfonyl)amino]pyridin-3-yl}methyl)amino]-5-(trifluoromethyl)pyrimidin-2-yl}amino)benzamide] in this work.

A pIC50 of 9.22 was found for `Cc1ccnc(N(C)S(C)(=O)=O)c1CNc1nc(Nc2ccc(C(N)=O)cc2)ncc1C(F)(F)F` [Compound 83, 4-({4-[({4-methyl-2-[methyl(methylsulfonyl)amino]pyrldin-3-yl}methyl)amino]-5-(trifluoromethyl)pyrimidin-2-yl}amino)benzamide] in this work.

A pIC50 of 8.77 was found for `Cc1ncc(CNc2nc(Nc3ccc(C(N)=O)cc3)ncc2C(F)(F)F)c(N(C)S(C)(=O)=O)n1` [Compound 84, 4-({4-[({2-methyl-4-[methyl(methylsulfonyl)amino]pyrimidin-5-yl}methyl)amino]-5-(trifluoromethyl)pyrimidin-2-yl}amino)benzamide] in this work.

A pIC50 of 9.08 was found for `Cc1cc(N(C)S(C)(=O)=O)c(CNc2nc(Nc3ccc(C(N)=O)cc3)ncc2C(F)(F)F)cn1` [Compound 85, 4-({4-[({6-methyl-4-[methyl(methylsulfonyl)amino]pyridin-3-yl}methyl)amino]-5-(trifluoromethyl)pyrimidin-2-yl}amino)benzamide] in this work.

A pIC50 of 8.79 was found for `CNC(=O)c1cccc(Nc2ncc(C(F)(F)F)c(NCc3cccnc3N(C)S(C)(=O)=O)n2)c1` [Compound 86, N-methyl-3-({4-[({2-[methyl(methylsulfonyl)amino]pyridin-3-yl}methyl)amino]-5-(trifluoromethyl)pyrimidin-2-yl}amino)benzamide] in this work.

A pIC50 of 7.67 was found for `CN(c1ncccc1CNc1nc(Nc2cccc(C(=O)Nc3cccc(C(F)(F)F)c3)c2)ncc1C(F)(F)F)S(C)(=O)=O` [Compound 88, 3-({4-[({2-[methyl(methylsulfonyl)amino]pyridin-3-yl}methyl)amino]-5-(trifluoromethyl)pyrimidin-2-yl}amino)-N-[3-(trifluoromethyl)phenyl]benzamide] in this work.

A pIC50 of 9.22 was found for `CCNC(=O)c1ccc(Nc2ncc(C(F)(F)F)c(NCc3ccc(C)nc3N(C)S(C)(=O)=O)n2)cc1` [Compound 89, N-ethyl-4-({4-[({6-methyl-2-[methyl(rnethylsu!fonyl)amino]pyridin-3-yl}methyl)amino]-5-(trifluoromethyl)pyrimidin-2-yl}amino)benzamide] in this work.

A pIC50 of 9.14 was found for `CN(c1ncccc1CNc1nc(Nc2cccc(C(=O)N3CC(O)C3)c2)ncc1C(F)(F)F)S(C)(=O)=O` [Compound 90, N-[3-({[2-({3-{(3-hydroxyazetidin-1-yl)carbonyl]phenyl}amino)-5-(trifluoromethyl)pyrimidin-4-yl]amino}methyl)pyridin-2-yl]-N-methylmethane-sulfonamide] in this work.

A pIC50 of 6.73 was found for `CCn1nccc1Nc1ncc(C(F)(F)F)c(NCc2cccnc2N(C)S(C)(=O)=O)n1` [Compound 91, N-{3-[({2-[(1-ethyl-1H-pyrazol-5-yl)amino]-5-(trifluoromethyl)pyrimidin-4-yl}amino)methyl]pyridin-2-yl}-N-methylmethane-sulfonamide] in this work.

A pIC50 of 9.22 was found for `COc1cc(Nc2ncc(C(F)(F)F)c(NCc3cccnc3N(C)S(C)(=O)=O)n2)ccn1` [Compound 93, N-{3-[({2-[(2-methoxypyridin-4-yl)amino]-5-(trifluoromethyl)pyrimidin-4-yl}amino)methyl]pyridin-2-yl}-N-methylmethane-sulfonamide] in this work.

A pIC50 of 8.10 was found for `Cc1cnccc1Nc1ncc(C(F)(F)F)c(NCc2cccnc2N(C)S(C)(=O)=O)n1` [Compound 94, N-methyl-N-{3-[({2-[(3-methylpyridin-4-yl)amino]-5-(trifluoromethyl)pyrimidin-4-yl)amino)methyl]pyridin-2-yl]methanesulfonamide] in this work.

A pIC50 of 9.22 was found for `CN(c1ncccc1CNc1nc(Nc2ccc(C#N)cc2)ncc1C(F)(F)F)S(C)(=O)=O` [Compound 95, N-{3-[({2-[(4-cyanophenyl)amino]-5-(trifluoromethyl)pyrimidin-4-yl}amino)methyl]pyridin-2-yl}-N-methylmethane-sulfonamide] in this work.

A pIC50 of 9.23 was found for `CCNC(=O)c1ccc(Nc2ncc(C(F)(F)F)c(NCc3ncccc3N(C)S(C)(=O)=O)n2)cc1` [Compound 97, N-ethyl-4-({4-[({3-[methyl(methylsulfonyl)amino]pyridin-2-yl}methyl)amino]-5-(trifluoromethyl)pyrimidin-2-yl}amino)benzamide] in this work.

A pIC50 of 9.23 was found for `CCOC(=O)Cc1ccc(Nc2ncc(C(F)(F)F)c(NCc3cccnc3N(C)S(C)(=O)=O)n2)cc1` [Compound 98, ethyl [4-({4-[({2-[methyl(methylsulfonyl)amino]pyridin-3-yl}methyl)amino]-5-(trifluoromethyl)pyrimidin-2-yl}amino)phenyl]acetate] in this work.
